Experimental data as given in ChEMBL document CHEMBL4610114, “Fragment-Based Discovery of Pyrazolopyridones as JAK1 Inhibitors with Excellent Subtype Selectivity” (J Med Chem, 2020).
Converted amounts (≈) assume the structure as drawn.

Legend:
[1] = target: T1, Tyrosine-protein kinase JAK1 (Homo sapiens, UniProt P23458)
[2] = target: T2, Tyrosine-protein kinase JAK3 (Homo sapiens, UniProt P52333)
T2 sequence (P52333 whole entry): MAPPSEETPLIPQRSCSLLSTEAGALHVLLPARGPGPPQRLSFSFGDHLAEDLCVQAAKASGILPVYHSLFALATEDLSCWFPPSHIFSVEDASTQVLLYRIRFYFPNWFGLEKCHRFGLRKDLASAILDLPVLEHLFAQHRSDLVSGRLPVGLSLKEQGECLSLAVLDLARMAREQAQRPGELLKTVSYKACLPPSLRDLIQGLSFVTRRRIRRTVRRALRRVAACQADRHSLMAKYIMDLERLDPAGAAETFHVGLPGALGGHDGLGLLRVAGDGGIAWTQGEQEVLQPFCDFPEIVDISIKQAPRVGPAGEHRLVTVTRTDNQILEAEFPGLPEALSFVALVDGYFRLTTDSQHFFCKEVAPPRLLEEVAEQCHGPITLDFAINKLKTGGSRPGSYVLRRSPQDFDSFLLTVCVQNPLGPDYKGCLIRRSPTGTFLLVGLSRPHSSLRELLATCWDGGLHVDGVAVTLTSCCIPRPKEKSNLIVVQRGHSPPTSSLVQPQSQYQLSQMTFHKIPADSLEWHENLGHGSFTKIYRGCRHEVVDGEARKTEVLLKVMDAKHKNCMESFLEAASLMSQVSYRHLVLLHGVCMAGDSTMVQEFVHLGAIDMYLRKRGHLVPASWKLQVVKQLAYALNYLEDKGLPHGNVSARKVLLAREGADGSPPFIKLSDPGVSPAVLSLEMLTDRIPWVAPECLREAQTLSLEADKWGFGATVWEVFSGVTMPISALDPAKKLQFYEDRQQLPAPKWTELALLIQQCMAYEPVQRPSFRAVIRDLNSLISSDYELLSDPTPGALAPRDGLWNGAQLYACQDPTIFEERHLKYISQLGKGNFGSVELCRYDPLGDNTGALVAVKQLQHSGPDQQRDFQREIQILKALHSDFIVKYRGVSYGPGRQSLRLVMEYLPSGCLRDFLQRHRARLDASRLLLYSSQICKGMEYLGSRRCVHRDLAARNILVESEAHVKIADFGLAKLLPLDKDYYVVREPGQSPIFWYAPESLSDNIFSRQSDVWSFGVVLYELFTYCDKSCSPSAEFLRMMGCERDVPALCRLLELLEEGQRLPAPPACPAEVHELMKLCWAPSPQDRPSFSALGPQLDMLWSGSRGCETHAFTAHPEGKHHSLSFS

[3] = target: T3, Tyrosine-protein kinase JAK2 (Homo sapiens, UniProt O60674)
T3 sequence (O60674 whole entry): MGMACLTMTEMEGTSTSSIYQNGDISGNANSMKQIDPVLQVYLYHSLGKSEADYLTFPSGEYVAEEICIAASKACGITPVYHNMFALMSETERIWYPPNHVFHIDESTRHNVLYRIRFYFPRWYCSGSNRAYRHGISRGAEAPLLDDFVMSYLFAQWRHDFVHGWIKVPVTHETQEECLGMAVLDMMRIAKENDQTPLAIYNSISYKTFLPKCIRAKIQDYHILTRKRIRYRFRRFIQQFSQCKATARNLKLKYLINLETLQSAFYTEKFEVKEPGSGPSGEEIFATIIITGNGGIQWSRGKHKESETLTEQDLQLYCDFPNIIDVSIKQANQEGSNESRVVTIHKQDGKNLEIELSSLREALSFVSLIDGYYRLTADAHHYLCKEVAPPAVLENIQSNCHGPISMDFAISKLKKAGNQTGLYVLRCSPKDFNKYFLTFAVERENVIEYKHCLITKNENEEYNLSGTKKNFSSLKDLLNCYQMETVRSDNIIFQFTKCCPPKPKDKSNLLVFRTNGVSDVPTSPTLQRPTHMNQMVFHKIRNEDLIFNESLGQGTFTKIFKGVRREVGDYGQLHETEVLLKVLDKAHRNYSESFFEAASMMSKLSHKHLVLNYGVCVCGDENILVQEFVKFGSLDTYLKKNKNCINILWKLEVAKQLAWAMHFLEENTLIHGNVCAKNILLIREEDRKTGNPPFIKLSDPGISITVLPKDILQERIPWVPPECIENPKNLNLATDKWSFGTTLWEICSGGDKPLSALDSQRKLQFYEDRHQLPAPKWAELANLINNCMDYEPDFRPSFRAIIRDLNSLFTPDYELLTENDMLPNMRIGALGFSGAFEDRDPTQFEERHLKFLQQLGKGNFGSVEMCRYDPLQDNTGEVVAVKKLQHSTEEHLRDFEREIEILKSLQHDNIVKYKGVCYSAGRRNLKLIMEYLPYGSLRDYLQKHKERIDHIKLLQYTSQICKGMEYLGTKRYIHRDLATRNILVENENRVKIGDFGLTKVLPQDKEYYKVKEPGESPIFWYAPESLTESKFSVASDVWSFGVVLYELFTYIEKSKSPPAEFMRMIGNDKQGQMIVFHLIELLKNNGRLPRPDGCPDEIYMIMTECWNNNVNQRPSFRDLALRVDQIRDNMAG

[4] = target: T1, Tyrosine-protein kinase JAK1; remark: listed apart in the source
Description: Inhibition of JAK1 in human STAT6-bla-RA1 cells assessed as reduction in IL4-induced STAT6-signalling pre-incubated for 1 hrs before human recombinant IL4 addition and further incubated for 4 hrs fluorescence based assay

[5] = target: T3, Tyrosine-protein kinase JAK2; remark: listed apart in the source
Description: Inhibition of JAK2 in human STAT5-irf1-bla TF1 cells assessed as reduction in EPO-induced STAT5-signalling pre-incubated for 1 hrs before EPO addition and further incubated for 4 hrs fluorescence based assay

physchem [6] = settings: octanol/water
Description: Lipophilicity, logD of the compound by shake flask assay

physchem [7] = settings: PBS buffer, pH 7.4
Description: Aqueous solubility in PBS buffer at pH 7.4 by HPLC analysis

in vitro [8] = settings: human, liver microsomes
Description: Apparent intrinsic clearance in human liver microsomes

[9] = target: Non-receptor tyrosine-protein kinase TYK2 (Homo sapiens, UniProt P29597)
Non-receptor tyrosine-protein kinase TYK2, sequence (P29597 whole entry, the tested form may be a part): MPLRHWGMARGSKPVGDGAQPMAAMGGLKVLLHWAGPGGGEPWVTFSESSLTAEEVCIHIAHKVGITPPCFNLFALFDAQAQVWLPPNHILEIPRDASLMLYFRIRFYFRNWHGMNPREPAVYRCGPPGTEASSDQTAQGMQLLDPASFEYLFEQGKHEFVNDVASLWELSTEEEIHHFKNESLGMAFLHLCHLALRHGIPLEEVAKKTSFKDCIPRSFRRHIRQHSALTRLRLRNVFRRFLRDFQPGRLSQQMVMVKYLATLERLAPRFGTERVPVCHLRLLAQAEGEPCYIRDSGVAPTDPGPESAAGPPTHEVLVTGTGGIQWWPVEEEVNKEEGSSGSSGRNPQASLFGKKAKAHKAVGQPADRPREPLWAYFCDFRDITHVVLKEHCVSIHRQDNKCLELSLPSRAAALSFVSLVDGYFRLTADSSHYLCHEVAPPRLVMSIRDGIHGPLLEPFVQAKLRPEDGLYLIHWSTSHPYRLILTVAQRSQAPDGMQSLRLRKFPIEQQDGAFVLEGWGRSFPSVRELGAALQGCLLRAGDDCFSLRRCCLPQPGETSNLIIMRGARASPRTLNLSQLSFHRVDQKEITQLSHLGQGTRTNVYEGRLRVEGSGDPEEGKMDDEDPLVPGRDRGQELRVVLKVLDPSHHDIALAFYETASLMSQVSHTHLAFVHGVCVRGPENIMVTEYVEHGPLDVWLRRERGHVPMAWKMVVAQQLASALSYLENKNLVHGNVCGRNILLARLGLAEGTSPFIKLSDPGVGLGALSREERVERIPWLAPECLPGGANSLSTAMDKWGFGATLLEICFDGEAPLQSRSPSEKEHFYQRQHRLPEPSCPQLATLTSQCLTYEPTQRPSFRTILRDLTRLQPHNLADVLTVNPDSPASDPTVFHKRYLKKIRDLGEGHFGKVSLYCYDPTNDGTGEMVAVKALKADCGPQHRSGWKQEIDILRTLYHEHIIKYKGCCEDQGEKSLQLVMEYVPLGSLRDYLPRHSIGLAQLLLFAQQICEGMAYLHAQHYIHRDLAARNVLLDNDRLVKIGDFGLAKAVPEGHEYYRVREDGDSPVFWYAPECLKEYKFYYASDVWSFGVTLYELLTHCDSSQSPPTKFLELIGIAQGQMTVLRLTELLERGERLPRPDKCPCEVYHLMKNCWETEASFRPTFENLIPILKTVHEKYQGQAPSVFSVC

[10] = target: Fibroblast growth factor receptor 1 (Homo sapiens) (UniProt P11362); test: Inhibition of human FGFR1 cytoplasmic domain (398 to 822(end) residues) at 1 mM ATP relative to control
Cytochrome P450 1A2 = target: T4, Cytochrome P450 1A2 (Homo sapiens, UniProt P05177); test: Inhibition of CYP1A2 (unknown origin) up to 25 uM; type: ADME
T4 sequence (P05177 whole entry): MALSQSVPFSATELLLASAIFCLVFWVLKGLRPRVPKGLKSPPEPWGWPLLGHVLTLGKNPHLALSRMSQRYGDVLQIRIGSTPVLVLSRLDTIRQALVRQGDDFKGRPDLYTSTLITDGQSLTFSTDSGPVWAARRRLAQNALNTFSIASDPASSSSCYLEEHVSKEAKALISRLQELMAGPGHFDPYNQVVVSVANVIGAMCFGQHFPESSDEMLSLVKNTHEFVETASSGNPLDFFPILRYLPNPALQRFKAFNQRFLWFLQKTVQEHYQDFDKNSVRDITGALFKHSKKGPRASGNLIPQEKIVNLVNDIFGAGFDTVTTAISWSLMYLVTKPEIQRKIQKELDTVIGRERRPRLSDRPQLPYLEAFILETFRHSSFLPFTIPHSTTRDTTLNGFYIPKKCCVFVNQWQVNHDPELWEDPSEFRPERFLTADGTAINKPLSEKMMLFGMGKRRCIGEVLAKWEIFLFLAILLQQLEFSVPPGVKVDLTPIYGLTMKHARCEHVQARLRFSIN

Cytochrome P450 2C9 = Cytochrome P450 2C9 (Homo sapiens, UniProt P11712); test: Inhibition of CYP2C9 (unknown origin) up to 25 uM; type: ADME
Cytochrome P450 2C19 = Cytochrome P450 2C19 (Homo sapiens, UniProt P33261); test: Inhibition of CYP2C19 (unknown origin) up to 25 uM; type: ADME
Cytochrome P450 2C19, sequence (P33261 whole entry): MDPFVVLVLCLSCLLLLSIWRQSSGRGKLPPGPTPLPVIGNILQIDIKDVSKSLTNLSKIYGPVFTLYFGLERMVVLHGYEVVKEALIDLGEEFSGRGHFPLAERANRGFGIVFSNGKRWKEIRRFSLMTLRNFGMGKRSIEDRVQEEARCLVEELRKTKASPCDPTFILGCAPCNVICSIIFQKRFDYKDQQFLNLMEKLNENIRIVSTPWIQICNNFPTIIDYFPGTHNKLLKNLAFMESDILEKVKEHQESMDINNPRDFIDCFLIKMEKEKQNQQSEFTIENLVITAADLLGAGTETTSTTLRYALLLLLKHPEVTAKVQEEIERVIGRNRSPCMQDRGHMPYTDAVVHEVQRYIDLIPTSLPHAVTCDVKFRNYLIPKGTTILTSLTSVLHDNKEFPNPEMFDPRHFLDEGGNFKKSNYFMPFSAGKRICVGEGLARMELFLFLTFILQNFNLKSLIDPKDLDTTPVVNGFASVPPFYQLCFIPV

Cytochrome P450 2D6 = Cytochrome P450 2D6 (Homo sapiens, UniProt P10635); test: Inhibition of CYP2D6 (unknown origin) up to 25 uM; type: ADME
Cytochrome P450 2D6, sequence (P10635 whole entry): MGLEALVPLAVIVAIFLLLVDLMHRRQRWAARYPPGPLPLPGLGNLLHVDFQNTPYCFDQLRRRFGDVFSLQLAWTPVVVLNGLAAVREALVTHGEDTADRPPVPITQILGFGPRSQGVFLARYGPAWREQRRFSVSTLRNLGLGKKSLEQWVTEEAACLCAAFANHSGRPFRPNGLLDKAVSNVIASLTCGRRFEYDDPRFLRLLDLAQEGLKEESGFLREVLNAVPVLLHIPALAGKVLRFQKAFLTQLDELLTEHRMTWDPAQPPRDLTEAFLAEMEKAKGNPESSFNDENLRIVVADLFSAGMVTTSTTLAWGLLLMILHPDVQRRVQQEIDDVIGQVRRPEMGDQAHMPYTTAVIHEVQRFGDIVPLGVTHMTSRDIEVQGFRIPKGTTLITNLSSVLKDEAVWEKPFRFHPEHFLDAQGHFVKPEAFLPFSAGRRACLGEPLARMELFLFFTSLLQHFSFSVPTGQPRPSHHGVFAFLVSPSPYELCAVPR

Cytochrome P450 3A4 = Cytochrome P450 3A4 (Homo sapiens, UniProt P08684); test: Inhibition of CYP3A4 (unknown origin) up to 25 uM; type: ADME
Cytochrome P450 3A4, sequence (P08684 whole entry): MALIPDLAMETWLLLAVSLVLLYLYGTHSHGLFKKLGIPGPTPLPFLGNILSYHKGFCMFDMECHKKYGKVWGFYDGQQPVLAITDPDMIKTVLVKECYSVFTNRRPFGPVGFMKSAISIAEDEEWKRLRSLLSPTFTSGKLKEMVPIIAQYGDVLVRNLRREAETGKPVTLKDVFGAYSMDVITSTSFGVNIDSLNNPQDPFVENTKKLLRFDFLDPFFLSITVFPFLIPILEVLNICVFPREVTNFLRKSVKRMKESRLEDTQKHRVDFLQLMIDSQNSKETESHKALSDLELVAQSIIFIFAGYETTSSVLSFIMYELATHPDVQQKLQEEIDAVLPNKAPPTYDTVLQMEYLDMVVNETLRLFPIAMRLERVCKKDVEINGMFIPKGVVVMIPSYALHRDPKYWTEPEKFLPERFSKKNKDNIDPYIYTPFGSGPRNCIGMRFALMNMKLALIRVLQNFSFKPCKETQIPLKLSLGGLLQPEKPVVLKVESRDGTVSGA

[11] = target: Voltage-gated inwardly rectifying potassium channel KCNH2 (Homo sapiens, UniProt Q12809); test: Binding affinity to human ERG at 30 uM
[12] = Protein binding in rat plasma assessed as unbound fraction; type: ADME, cell-free
[13] = Apparent permeability in human Caco2 cells; type: ADME, cell-based; settings: Caco-2
[14] = Drug absorption in rat at […], po; type: ADME, organism-based; settings: in vivo, read-out: Fabs
[15] = Half life in rat at […], po or 0.06 mg/kg, iv; type: ADME, organism-based; settings: in vivo
[16] = Clearance in rat at […], po or 0.06 mg/kg, iv; type: ADME, organism-based; settings: in vivo
[17] = Terminal Phase volume of distribution […] in rat at […], po or 0.06 mg/kg, iv; type: ADME, organism-based; settings: in vivo, read-out: Vbeta
[18] = Oral bioavailability in rat at […]; type: ADME, organism-based; settings: in vivo
in vitro [19] = settings: rat, liver microsomes
Description: Apparent intrinsic clearance in rat liver microsomes

in vitro [20] = settings: rat, hepatocytes
Description: Apparent intrinsic clearance in rat hepatocytes

T1 sequence (P23458 whole entry): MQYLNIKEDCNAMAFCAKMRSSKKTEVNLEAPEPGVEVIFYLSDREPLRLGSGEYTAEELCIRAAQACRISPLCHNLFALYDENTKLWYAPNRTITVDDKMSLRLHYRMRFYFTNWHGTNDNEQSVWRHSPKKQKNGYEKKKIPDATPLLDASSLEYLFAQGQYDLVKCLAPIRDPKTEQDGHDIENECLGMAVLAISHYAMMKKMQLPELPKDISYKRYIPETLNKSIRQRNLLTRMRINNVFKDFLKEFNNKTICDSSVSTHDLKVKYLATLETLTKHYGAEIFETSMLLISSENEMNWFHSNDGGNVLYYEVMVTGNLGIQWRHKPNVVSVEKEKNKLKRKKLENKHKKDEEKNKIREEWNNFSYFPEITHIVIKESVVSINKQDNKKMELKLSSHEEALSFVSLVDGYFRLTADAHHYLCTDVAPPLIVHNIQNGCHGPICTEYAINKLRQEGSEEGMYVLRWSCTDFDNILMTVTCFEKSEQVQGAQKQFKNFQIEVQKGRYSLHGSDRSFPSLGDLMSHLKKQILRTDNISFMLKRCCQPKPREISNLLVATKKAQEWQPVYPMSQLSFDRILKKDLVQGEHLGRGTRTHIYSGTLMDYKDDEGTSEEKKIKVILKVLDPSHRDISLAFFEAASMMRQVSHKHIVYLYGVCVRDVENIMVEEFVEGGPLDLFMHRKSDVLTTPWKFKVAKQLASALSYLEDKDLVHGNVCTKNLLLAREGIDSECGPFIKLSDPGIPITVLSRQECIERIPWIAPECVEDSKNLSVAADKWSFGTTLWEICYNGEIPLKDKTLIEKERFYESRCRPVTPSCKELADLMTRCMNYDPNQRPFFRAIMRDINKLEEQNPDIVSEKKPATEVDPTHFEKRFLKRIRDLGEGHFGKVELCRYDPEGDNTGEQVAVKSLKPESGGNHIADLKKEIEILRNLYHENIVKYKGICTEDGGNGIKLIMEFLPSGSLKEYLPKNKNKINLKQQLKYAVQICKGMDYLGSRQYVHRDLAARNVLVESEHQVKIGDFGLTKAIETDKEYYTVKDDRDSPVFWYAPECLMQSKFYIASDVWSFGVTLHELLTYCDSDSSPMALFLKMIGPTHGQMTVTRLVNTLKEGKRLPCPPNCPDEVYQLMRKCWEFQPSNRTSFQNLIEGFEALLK

| SMILES | IC50 [1] | IC50 [2] | IC50 [3] | IC50 [4] | IC50 [5] | logD (physchem [6]) | solubility (physchem [7]) | CLint scaled (in vitro [8]) | IC50 [9] | other results |
| --- | --- | --- | --- | --- | --- | --- | --- | --- | --- | --- |
| Cc1[nH]nc2[nH]c(=O)cc([C@H]3C[C@H]4C[C@@H]3C[C@H]4CC#N)c12 |  | 970 nM | 360 nM |  | > 43000 nM | 1.6 | 290 µM (≈ 81.9 µg/mL) | < 8 mL/min/kg | 330 nM |  |
| Cc1[nH]nc2[nH]c(=O)cc([C@@H]3C[C@@H]4C[C@H]3C[C@@H]4CC#N)c12 |  | 220 nM | 150 nM |  | 24000 nM | 1.5 | > 92 µM | < 8 mL/min/kg | 220 nM |  |

Now those with a lower IC50 [2], led by results:

| IC50 [1] | IC50 [2] | IC50 [3] | IC50 [4] | IC50 [5] | logD (physchem [6]) | solubility (physchem [7]) | CLint scaled (in vitro [8]) | IC50 [9] | SMILES | other results |
| --- | --- | --- | --- | --- | --- | --- | --- | --- | --- | --- |
| 11 nM | 150 nM | 89 nM | 14000 nM | > 45000 nM | 0.7 | 85 µM (≈ 31.2 µg/mL) | < 8 mL/min/kg |  | Cc1[nH]nc2[nH]c(=O)cc([C@H]3CC[C@H](CC(=O)N4CCC(C#N)C4)CC3)c12 (mixture of isomers) |  |
| 13 nM | 97 nM | 64 nM | > 30000 nM | > 30000 nM | 0.5 | 540 µM (≈ 191 µg/mL) | < 8 mL/min/kg |  | Cc1[nH]nc2[nH]c(=O)cc([C@H]3CC[C@H](CC(=O)N4CC(C#N)C4)CC3)c12 |  |
|  | 88 nM | 12 nM |  | 2800 nM | 1.5 | 89 µM (≈ 25.1 µg/mL) | < 8 mL/min/kg | 20 nM | Cc1[nH]nc2[nH]c(=O)cc([C@H]3C[C@H]4C[C@@H]3C[C@@H]4CC#N)c12 | inhibition [10]: 32%; inhibition (INH) (Cytochrome P450 1A2): Not Active; inhibition (INH) (Cytochrome P450 2C9): Not Active; inhibition (INH) (Cytochrome P450 2C19): Not Active; inhibition (INH) (Cytochrome P450 2D6): Not Active; inhibition (INH) (Cytochrome P450 3A4): Not Active; Activity [11]: Not Active; fraction unbound [12]: 0.22; Papp [13]: 0.7 ×10⁻⁶ cm/s; Fa [14]: 41%; half-life [15]: 18 min; clearance [16]: 53 mL/min/kg; Vd [17]: 1.2 L/kg; bioavailability [18]: 14%; CLint scaled (in vitro [19]): < 15 mL/min/kg; CLint scaled (in vitro [20]): 25 mL/min/kg |
